From patent US20060134095A1, “Antioxidative composition and composition for external use” (priority 2003, published 2006)

How the values were obtained:
[1] = hydroxy radical scavenging activity by ESR spin trapping (H2O2/FeSO4, DMPO); details: for Remaining amount of hydroxyl radicals: relative signal intensity (DMPO-OH/MnO); for hydroxyl radical scavenging activity (in words) / hydroxyl radical scavenging activity compared with pro-vitamin C (A2P: ascorbic acid-2-phosphate Na): ESR spin trapping, Table 2
Procedure: (1) With regard to the foregoing samples, according to the direction in the following Table 1, the sample was put into a 1.5 ml Eppendorf tube, H2O2 was added, and reaction was carried out for 30 seconds after the addition for H2O2. Subsequently, the measurement was carried out by ESR, and the hydroxy radical scavenging activities of the fullerenes measured by the ESR spin trapping method were evaluated.
For preparation of the reagents, milli Q was used. As for the ESR apparatus, JES-FR30 (JEOL Co.) was used, and measurement was carried out using a high sensitive ESR water-soluble flat cell (LABOTEC Co.). The measurement conditions of ESR were as follows. Power: 4 mW, Field: 336±5, Sweep Time: 1 min., Modulation Width: 0.32 mT, Amp: 400, Response Time: 0.3 sec. Evaluation was performed with the ratio of the signal amplitude of OH to that of the paramagnetic internal standard, MnO.

[2] = superoxide scavenging activity by ESR spin trapping (hypoxanthine/xanthine oxidase, DMPO)
Procedure: (2) In addition, according to the direction in the following Table 3, each of the samples was put into a 1.5 ml Eppendorf tube, XOD was added, and reaction was carried out for 30 seconds. Subsequently, the measurement was carried out by ESR, whereby the superoxide scavenging activities measured by ESR spin trapping were evaluated. The measuring method was according to the case of the hydroxyl radical.
The measurement conditions of ESR were as follows. Power: 4 mW, Field: 336±5, Sweep Time: 1 min., Modulation Width: 0.1 mT, Amp: 790, Response Time: 0.3 sec. Evaluation was performed with the ratio of the signal amplitude of O2 to that of the paramagnetic internal standard, MnO.

[3] = test system: human skin epidermal keratinocytes; experiment: antioxidative effect against UVB in keratinocytes (CDCFH-DA fluorescence, intracellular peroxide/hydrogen peroxide); format: cell-based; details: UVB 40 mJ/cm^2, samples added before irradiation, FIG. 1
Procedure: (3) With regard to various samples, their antioxidative effects against UVB were evaluated by using keratinocytes, a human major cell type.
The results are shown in Pig. 1.

## CCO [Ethanol, reference compound]
[1]; ethanol, concentration not given, control (Milli-Q water) 3.0
  Remaining amount of hydroxyl radicals: 1.3
[2]; relative signal intensity (DMPO-OOH/MnO), ethanol, concentration not given, control (Milli-Q water) 3.0
  Remaining amount of superoxide anion radical: 7.5

## Fullerene modified with PEG [Sample F3]
[1]
  hydroxyl radical scavenging activity (in words): significant
  hydroxyl radical scavenging activity compared with pro-vitamin C (A2P: ascorbic acid-2-phosphate Na): slightly superior to or equal to
[2]; ESR spin trapping, Table 4
  radical scavenging activity in the superoxide test (in words; printed as hydroxyl radical scavenging activities): significant
  superoxide anion radical scavenging activity compared with pro-vitamin C (A2P): significantly superior

## Hydroxylated fullerene [Sample F6]
[1]
  hydroxyl radical scavenging activity (in words): significant
  hydroxyl radical scavenging activity compared with pro-vitamin C (A2P: ascorbic acid-2-phosphate Na): slightly superior to or equal to
[1]; sample 9.26 μM, solubilized in 70% ethanol, diluted to 0.2%, control 3.0
  Remaining amount of hydroxyl radicals: 0.6
[3]
  peroxide/hydrogen peroxide scavenging activity in skin cells (antioxidative effect) compared with pro-vitamin C (Asc2P-Na): equal
[2]; ESR spin trapping, Table 4
  superoxide anion radical scavenging activity compared with pro-vitamin C (A2P): equal to or more than
